Source: article PMC10175918 (Communications Biology, 2023)
Like-named read-outs stand apart in the source and are kept apart here.

Legend:
Assay in all cases: TGFα-shedding assay-based GPCR screening with chimeric Gα subunit proteins
Assay type in all cases: cell-based
Details in all cases: 10µM, Favipiravir 100μM
[1] = target: T1, 348 GPCRs (Homo sapiens, UniProt Q99678)
T1 construct: expressed in transfected cells; host or cells: HEK293A

[2] = target: T2, 348 GPCRs (Homo sapiens, UniProt Q9NYW0)
T2 construct: expressed in transfected cells; host or cells: HEK293A
T2 sequence (Q9NYW0 1-307): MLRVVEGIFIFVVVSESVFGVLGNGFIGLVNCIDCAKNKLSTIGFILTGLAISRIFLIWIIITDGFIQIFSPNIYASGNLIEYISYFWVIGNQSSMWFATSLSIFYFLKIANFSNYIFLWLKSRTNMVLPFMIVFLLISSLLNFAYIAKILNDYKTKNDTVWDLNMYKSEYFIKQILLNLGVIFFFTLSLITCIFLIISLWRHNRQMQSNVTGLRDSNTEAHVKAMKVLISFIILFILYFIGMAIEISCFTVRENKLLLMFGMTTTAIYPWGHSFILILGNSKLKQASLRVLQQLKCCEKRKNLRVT

[3] = target: T3, 348 GPCRs (Homo sapiens, UniProt O43603)
T3 construct: expressed in transfected cells; host or cells: HEK293A
T3 sequence (O43603 1-387): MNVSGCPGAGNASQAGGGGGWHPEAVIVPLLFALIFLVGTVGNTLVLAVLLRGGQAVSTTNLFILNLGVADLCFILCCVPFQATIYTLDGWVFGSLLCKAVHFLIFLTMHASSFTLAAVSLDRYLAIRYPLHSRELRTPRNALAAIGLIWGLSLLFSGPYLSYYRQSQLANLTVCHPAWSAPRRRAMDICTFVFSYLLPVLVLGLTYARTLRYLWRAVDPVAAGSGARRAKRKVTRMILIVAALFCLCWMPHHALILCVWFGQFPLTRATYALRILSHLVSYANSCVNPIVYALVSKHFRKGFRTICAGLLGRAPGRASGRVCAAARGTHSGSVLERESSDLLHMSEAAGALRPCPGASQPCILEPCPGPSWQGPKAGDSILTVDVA

[4] = target: T4, 348 GPCRs (Homo sapiens, UniProt P43657)
T4 construct: expressed in transfected cells; host or cells: HEK293A
T4 sequence (P43657 1-344): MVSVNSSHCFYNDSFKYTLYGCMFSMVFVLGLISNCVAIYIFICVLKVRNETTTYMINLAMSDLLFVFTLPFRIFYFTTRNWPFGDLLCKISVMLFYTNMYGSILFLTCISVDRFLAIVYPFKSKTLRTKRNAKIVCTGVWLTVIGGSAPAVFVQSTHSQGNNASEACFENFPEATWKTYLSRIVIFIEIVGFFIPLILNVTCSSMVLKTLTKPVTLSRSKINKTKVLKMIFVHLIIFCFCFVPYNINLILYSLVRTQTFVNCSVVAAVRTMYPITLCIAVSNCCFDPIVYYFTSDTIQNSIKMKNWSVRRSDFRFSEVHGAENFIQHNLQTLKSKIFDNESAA

[5] = target: 348 GPCRs (Homo sapiens, UniProt P32745)
Chain of 348 GPCRs (Homo sapiens, UniProt P32745) (P32745 whole entry): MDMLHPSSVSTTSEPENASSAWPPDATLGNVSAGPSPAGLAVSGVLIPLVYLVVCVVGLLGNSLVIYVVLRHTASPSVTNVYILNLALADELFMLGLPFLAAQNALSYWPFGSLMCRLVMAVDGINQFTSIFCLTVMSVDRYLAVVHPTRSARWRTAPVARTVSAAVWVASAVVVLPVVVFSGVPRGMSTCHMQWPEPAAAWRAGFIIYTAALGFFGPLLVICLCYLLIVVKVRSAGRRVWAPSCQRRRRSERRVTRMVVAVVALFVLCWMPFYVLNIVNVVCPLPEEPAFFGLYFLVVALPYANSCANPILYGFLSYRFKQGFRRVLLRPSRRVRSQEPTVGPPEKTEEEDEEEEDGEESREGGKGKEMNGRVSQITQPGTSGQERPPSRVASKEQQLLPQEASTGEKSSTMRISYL

[6] = target: T5, 348 GPCRs (Homo sapiens, UniProt P47898)
T5 construct: expressed in transfected cells; host or cells: HEK293A
T5 sequence (P47898 whole entry): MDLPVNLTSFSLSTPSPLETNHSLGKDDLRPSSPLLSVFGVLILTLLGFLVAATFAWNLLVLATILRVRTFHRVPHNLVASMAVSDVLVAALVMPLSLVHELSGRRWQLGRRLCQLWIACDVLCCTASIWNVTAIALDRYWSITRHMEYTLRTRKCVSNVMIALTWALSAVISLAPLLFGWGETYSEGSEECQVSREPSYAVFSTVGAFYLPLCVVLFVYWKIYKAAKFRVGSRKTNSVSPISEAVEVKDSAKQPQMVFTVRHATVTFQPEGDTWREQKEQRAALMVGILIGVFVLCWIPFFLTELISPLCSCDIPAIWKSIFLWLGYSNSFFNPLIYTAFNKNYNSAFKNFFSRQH

[7] = target: T6, 348 GPCRs (Homo sapiens, UniProt P49683)
T6 construct: expressed in transfected cells; host or cells: HEK293A
T6 sequence (P49683 1-370): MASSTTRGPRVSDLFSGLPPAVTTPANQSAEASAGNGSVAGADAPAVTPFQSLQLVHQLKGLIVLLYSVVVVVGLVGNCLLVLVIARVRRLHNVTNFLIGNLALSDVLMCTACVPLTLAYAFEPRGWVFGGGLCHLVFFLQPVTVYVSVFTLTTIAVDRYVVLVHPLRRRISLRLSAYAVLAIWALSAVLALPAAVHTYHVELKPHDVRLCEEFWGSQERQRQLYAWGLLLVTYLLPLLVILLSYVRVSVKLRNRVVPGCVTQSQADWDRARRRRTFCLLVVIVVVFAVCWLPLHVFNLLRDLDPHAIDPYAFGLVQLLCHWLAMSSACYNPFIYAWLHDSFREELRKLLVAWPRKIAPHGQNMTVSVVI

[8] = target: T7, 348 GPCRs (Homo sapiens, UniProt Q9GZQ6)
T7 construct: expressed in transfected cells; host or cells: HEK293A
T7 sequence (Q9GZQ6 whole entry): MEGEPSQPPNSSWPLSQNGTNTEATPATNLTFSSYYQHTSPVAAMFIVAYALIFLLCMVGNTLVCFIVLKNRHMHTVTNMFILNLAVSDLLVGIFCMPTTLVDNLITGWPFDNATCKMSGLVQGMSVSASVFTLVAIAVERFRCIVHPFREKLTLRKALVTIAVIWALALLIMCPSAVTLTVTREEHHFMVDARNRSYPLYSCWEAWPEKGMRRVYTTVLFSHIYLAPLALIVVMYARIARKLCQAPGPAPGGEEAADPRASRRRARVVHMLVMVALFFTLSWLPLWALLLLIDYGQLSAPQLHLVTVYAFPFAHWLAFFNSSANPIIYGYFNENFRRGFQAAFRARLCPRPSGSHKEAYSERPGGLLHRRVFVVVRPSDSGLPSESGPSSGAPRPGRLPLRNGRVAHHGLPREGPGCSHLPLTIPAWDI

[9] = target: T8, 348 GPCRs (Homo sapiens, UniProt Q9NYW1)
T8 construct: expressed in transfected cells; host or cells: HEK293A
T8 sequence (Q9NYW1 1-312): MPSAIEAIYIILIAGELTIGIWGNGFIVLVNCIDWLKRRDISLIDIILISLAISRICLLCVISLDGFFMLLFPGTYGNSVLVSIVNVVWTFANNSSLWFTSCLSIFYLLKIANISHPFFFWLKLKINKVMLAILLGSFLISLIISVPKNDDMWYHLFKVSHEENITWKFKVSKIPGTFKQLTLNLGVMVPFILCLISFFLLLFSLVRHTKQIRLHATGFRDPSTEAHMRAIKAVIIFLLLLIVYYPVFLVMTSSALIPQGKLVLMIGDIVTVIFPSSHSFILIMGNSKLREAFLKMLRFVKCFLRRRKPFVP

[10] = GPR20 (G protein-coupled receptor 20), read-out: % GPCR activation compared to TPA
[11] = TAS2R10 (taste receptor, type 2, member 10), read-out: % GPCR activation compared to TPA
[12] = GAL2 (galanin receptor 2), read-out: % GPCR activation compared to TPA
[13] = LPAR6 (lysophosphatidic acid receptor 6), read-out: % GPCR activation compared to TPA
[14] = SSTR3 (somatostatin receptor 3), read-out: % GPCR activation compared to TPA
[15] = 5-HT5A (5-hydroxytryptamine receptor 5A), read-out: % GPCR activation compared to TPA
[16] = PRLHR (prolactin releasing hormone receptor), read-out: % GPCR activation compared to TPA
[17] = NPFFR1 (neuropeptide FF receptor 1), read-out: % GPCR activation compared to TPA
[18] = TAS2R9 (taste receptor, type 2, member 9), read-out: % GPCR activation compared to TPA
[19] = read-out: % GPCR activation compared to TPA, GPR20 (G protein-coupled receptor 20)
[20] = read-out: % GPCR activation compared to TPA, TAS2R10 (taste receptor, type 2, member 10)
[21] = read-out: % GPCR activation compared to TPA, GAL2 (galanin receptor 2)
[22] = read-out: % GPCR activation compared to TPA, LPAR6 (lysophosphatidic acid receptor 6)
[23] = read-out: % GPCR activation compared to TPA, SSTR3 (somatostatin receptor 3)
[24] = read-out: % GPCR activation compared to TPA, 5-HT5A (5-hydroxytryptamine receptor 5A)
[25] = read-out: % GPCR activation compared to TPA, PRLHR (prolactin releasing hormone receptor)
[26] = read-out: % GPCR activation compared to TPA, NPFFR1 (neuropeptide FF receptor 1)
[27] = read-out: % GPCR activation compared to TPA, TAS2R9 (taste receptor, type 2, member 9)

T1 sequence (Q99678 whole entry): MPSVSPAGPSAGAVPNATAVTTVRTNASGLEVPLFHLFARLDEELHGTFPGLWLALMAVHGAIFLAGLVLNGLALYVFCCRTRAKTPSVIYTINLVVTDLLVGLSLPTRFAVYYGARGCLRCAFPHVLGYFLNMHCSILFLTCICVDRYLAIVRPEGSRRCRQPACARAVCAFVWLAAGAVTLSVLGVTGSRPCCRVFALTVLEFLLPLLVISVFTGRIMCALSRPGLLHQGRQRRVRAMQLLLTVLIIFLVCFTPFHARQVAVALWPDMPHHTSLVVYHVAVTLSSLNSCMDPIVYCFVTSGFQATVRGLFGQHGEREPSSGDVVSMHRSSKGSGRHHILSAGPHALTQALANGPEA

SMILES | activation at 100 µM [1, 10] | activation at 100 µM [2, 11] | activation at 100 µM [3, 12] | activation at 10 µM [4, 13] | activation at 10 µM [5, 14] | activation at 100 µM [6, 15] | activation at 100 µM [7, 16] | activation at 10 µM [8, 17] | activation at 10 µM [9, 18] | activation at 100 µM [1, 19] | activation at 100 µM [2, 20] | activation at 100 µM [3, 21] | activation at 10 µM [4, 22] | activation at 10 µM [5, 23] | activation at 100 µM [6, 24] | activation at 100 µM [7, 25] | activation at 10 µM [8, 26] | activation at 10 µM [9, 27]
N#C[C@@]1(c2ccc3c(N)ncnn23)O[C@H](CO)[C@@H](O)[C@H]1O [GS441524] | 7.2% | 0.66% | -0.925% | -2.57% | 3.54% | -3.98% | -1.86% | 1.07% | 0.686% |  |  |  |  |  |  |  |  | 
CCC(CC)COC(=O)[C@H](C)N[P@](=O)(OC[C@H]1O[C@@](C#N)(c2ccc3c(N)ncnn23)[C@H](O)[C@@H]1O)Oc1ccccc1 [remdesivir] |  |  |  |  |  |  |  |  |  | 8.9% | 1.89% | 0.971% | -2.67% | 3.89% | -0.876% | 0.33% | -0.49% | 1.69%
CC(C)OC(=O)[C@H](C)N[P@](=O)(OC[C@H]1O[C@@H](n2ccc(=O)[nH]c2=O)[C@](C)(F)[C@@H]1O)Oc1ccccc1 [sofosbuvir] |  |  |  |  |  |  |  |  |  | -2.45% | -0.149% | 3.27% | 0.0867% | -1.81% | -0.524% | -8.24% | -1.9% | -0.791%

Now from value to molecule, other results behind:

activation at 100 µM [1, 10] | activation at 100 µM [2, 11] | activation at 100 µM [3, 12] | activation at 10 µM [4, 13] | activation at 10 µM [5, 14] | activation at 100 µM [6, 15] | activation at 100 µM [7, 16] | activation at 10 µM [8, 17] | activation at 10 µM [9, 18] | SMILES | activation at 100 µM [1, 19] | activation at 100 µM [2, 20] | activation at 100 µM [3, 21] | activation at 10 µM [4, 22] | activation at 10 µM [5, 23] | activation at 100 µM [6, 24] | activation at 100 µM [7, 25] | activation at 10 µM [8, 26] | activation at 10 µM [9, 27]
3.63% | 1.23% | -0.244% | -2.1% | 1.41% | -2.45% | 1.46% | -3.31% | 2.37% | NC(=O)c1nc(F)cnc1O [favipiravir, 6-fluoro-3-hydroxy-2-pyrazinecarboxamide] |  |  |  |  |  |  |  |  | 
-0.078% | -0.25% | -6.16% | -2.83% | -1.25% | -1.01% | -3.13% | -0.462% | 0.0718% | CC(C)C(=O)OC[C@H]1O[C@@H](n2ccc(NO)nc2=O)[C@H](O)[C@@H]1O [molnupiravir] |  |  |  |  |  |  |  |  | 
